The values that follow come from ChEMBL document CHEMBL1777675, “N-hydroxy-N'-aminoguanidines as anti-cancer lead molecule: QSAR, synthesis and biological evaluation” (Bioorg Med Chem Lett, 2011).

Series [1] is described as follows: Cytotoxicity against african green monkey Vero cells. It counts as cell-based. The settings on record: chlorocebus sabaeus.
For a further series, the system named is HL-60. Kind of series: Anticancer activity against human HL60 cells. The format is functional, cell-based.
A short description of series [2]: Cytotoxicity against human HeLa cells. The format is cell-based.
The test system of another series is L1210. Kind of series: Cytotoxicity against mouse L1210 cells after 65 hrs by MTS/PES microculture tetrazolium assay. The format is functional, cell-based. The conditions noted are these: L1210, 65 h.

The CC50 is the concentration that lowers cell viability or growth by half. For orientation: IC50 means the concentration needed to halve the response being measured. `N=C(NO)N/N=C/c1ccc(Cl)cc1`: the CC50 in series [1] and in series [2] was more than 100 µM in each case. The same molecule registered an IC50 with HL-60 of more than 100 µM.

With `CN(C)c1ccc(/C=N/NC(=N)NO)cc1`, the CC50 in series [1] and in series [2] was more than 100 µM each time. The same molecule returned an IC50 in the series on HL-60 of more than 100 µM.

With `N=C(NO)N/N=C/c1ccc(O)cc1`, the CC50 in series [1] and in series [2] was more than 100 µM throughout. This molecule showed an IC50 in the series on HL-60 of more than 100 µM.

For `COc1ccc(/C=N/NC(=N)NO)cc1`, the CC50 in series [1] and in series [2] was more than 100 µM throughout. In the series on HL-60, this molecule gave an IC50 of more than 100 µM.

Regarding `COc1ccc(/C=N/NC(=N)NO)cc1O`, the CC50 in series [1] and in series [2] was more than 100 µM throughout. In the series with HL-60, this molecule registered an IC50 of more than 100 µM.

Take `N/C(=N\O)N/N=C/c1ccccc1O`: the CC50 in series [1] and in series [2] was more than 100 µM each time. The molecule also registered an IC50 in the series on HL-60 of 95 µM.

As to `N=C(NO)N/N=C/c1ccccc1Cl`, the CC50 in series [1] and in series [2] was more than 100 µM each time. In the series on HL-60, this molecule registered an IC50 of 60 µM.

With `COc1ccccc1/C=N/N=C(\N)NO`, the CC50 in series [1] and in series [2] was more than 100 µM in each case. Besides, the IC50 with HL-60 was more than 100 µM.

In the series with L1210, `CS(=O)(=O)Oc1ccc(/C=N/NC(=N)NO)cc1` gave an IC50 of 14.8 µM.

In the series with L1210, `CCCCCCOc1ccc(/C=N/NC(=N)NO)cc1` had an IC50 of 7.8 µM.

Turning to `CCCCOc1ccc(/C=N/NC(=N)NO)cc1`, the IC50 in the series on L1210 was 8.53 µM.

`Cc1ccn(C)c1/C=N/NC(=N)NO` showed an IC50 in the series on L1210 of 2.7 µM.

Consider `O=C(NO)N/N=C\C1=CCc2c(Cl)cc(Cl)cc2C1=O`, for which, in the series with L1210, it took 28.2 µM to reach half-maximal inhibition (IC50).

In the series with L1210, `CC(C)c1ccc2c(c1)C(=O)C(/C=N\NC(=O)NO)=CC2` gave an IC50 of 32.2 µM.

`O=C(NO)N/N=C/C1CC2C=CC1C2` (configuration not stated) had an IC50 in the series on L1210 of 10.6 µM.

`N=C(NO)N/N=C/c1cc2ccccc2cn1`: the IC50 in the series with L1210 is 3.3 µM.

`N=C(NO)N/N=C1\C(=O)Nc2ccccc21`: 48.4 µM corresponded to half-maximal inhibition in the series with L1210 (IC50).

For `O=C(NO)N/N=C/C1CCCCC1`, in the series on L1210, 21.2 µM corresponded to half-maximal inhibition (IC50).

With `N=C(NO)N/N=C/c1ccco1`, the CC50 in series [1] and in series [2] was more than 100 µM in each case. For the same molecule, in the series with HL-60, the IC50 was more than 100 µM.

In the case of `Cc1ccccc1/C=N/NC(=N)NO`, the CC50 in series [1] and in series [2] was more than 100 µM in each case. The same molecule had an IC50 with HL-60 of more than 100 µM.

As for `Cc1ccc(/C=N/NC(=N)NO)cc1`, the CC50 in series [1] and in series [2] was more than 100 µM in each case. In the series on HL-60, this molecule showed an IC50 of 67 µM.

On to `N=C(NO)N/N=C/c1ccccc1`, for which the CC50 in series [1] and in series [2] was more than 100 µM in each case. This molecule also showed a half-inhibitory concentration (IC50) in the series on HL-60 of 62 µM.

Take `N=C(NO)N/N=C/c1c2ccccc2cc2ccccc12`: the CC50 in series [1] and in series [2] was more than 100 µM each time. The molecule also registered an IC50 in the series on HL-60 of 11 µM.

`Cc1ccsc1/C=N/N=C(/N)NO` gave an IC50 in the series on L1210 of 33.2 µM.

For the molecule `N/C(=N/N=C/c1ccccn1)NO`, inhibition in the series with L1210 was half-maximal at 10.9 µM (IC50).

For the molecule `COc1cccc(/C=N/NC(=N)NO)c1`, the midpoint of inhibition in the series on L1210, the IC50, lay at 16 µM.

`Cc1cccc(/C=N/N=C(\N)NO)n1` had an IC50 in the series with L1210 of 42.1 µM.

On to `N/C(=N\O)N/N=C/c1cccc(C(F)(F)F)c1`, for which the IC50 with L1210 was 15.1 µM.

In the series on L1210, `N/C(=N\O)N/N=C/c1cccs1` had an IC50 of 34.1 µM.

As to `N/C(=N\O)N/N=C/c1cccc(I)c1`, the IC50 in the series with L1210 was 12.5 µM.

In turn, `N=C(NN)NO` showed an IC50 in the series with L1210 of 126 µM.
